# Square brackets hold non-standard residues; d marks the D form. Peptide text beside a SMILES is read from it. ξ: configuration not given here. ξHpg = NC(C(=O)O)c1ccc(O)cc1
# Test system: Tyrosine--tRNA ligase (Staphylococcus aureus)
# Assay: Compound was tested for inhibition of Staphylococcus aureus tyrosyl tRNA Synthetase; NI=No inhibition
row,Structure (SMILES),IC50
1,N[C@@H](Cc1ccc(O)cc1)C(=O)N[C@@H](C(=O)O)c1ccccc1,No inhibition
2,COC(=O)C(NC(=O)[C@@H](N)Cc1ccc(O)cc1)c1ccc(O)cc1 (some centres not stated) (H-Tyr-[ξHpg]-OMe),No inhibition

# — ChEMBL document CHEMBL1132002, “Interaction of tyrosyl aryl dipeptides with S. aureus tyrosyl tRNA synthetase: inhibition and crystal structure of a complex” (Bioorg Med Chem Lett, 1999)
